# Results from patent US20120100989A1, “3-Aryl-4-(2-thienylmethylene)isoxazol-5(4H)-ones as Fungicides” (Bayer CropScience AG, priority 2010, published 2012).
# Assay: log P by HPLC on reversed-phase columns (C 18), EEC directive 79/831 Annex V.A8
# Format: physicochemical
# Details: HPLC, acidic range pH 2.7, 0.1% aqueous formic acid and acetonitrile
# Method: The log P values were measured according to EEC directive 79/831 Annex V.A8 by HPLC (High Performance Liquid Chromatography) on reversed-phase columns (C 18), using the method below:
# The determination was carried out in the acidic range at pH 2.7 using the mobile phases 0.1% aqueous formic acid and acetonitrile; linear gradient from 10% acetonitrile to 95% acetonitrile.
row,Compound,log P
1,Cc1ccc(C=C2C(=O)ON=C2c2ccccc2Cl)s1 [I-8],3.23

# Same assay, conditions: pH 2.7
row,Compound,log P
1,O=C1ON=C(c2ccccc2)C1=Cc1ccc(Br)s1 [I-1],3.71
2,O=C1ON=C(c2ccc(F)cc2)C1=Cc1cccs1 [I-2],3.01
3,O=C1ON=C(c2cccc(Cl)c2)C1=Cc1cccs1 [I-3],3.40
4,O=C1ON=C(c2ccccc2Cl)C1=Cc1cccs1 [I-6],3.17
5,O=C1ON=C(c2ccc(Cl)c(Cl)c2)C1=Cc1cccs1 [I-7],3.89
6,O=C1ON=C(c2ccccc2Cl)C1=Cc1ccc(Cl)s1 [I-9],3.90
7,CCc1sc(C=C2C(=O)ON=C2c2ccccc2Cl)cc1Br [I-10],3.87
8,O=C1ON=C(c2ccccc2Cl)C1=Cc1cc(Br)cs1 [I-11],3.92
9,Cc1sc(C=C2C(=O)ON=C2c2ccccc2Cl)cc1Br [I-12],4.73
10,CSCc1sc(C=C2C(=O)ON=C2c2ccccc2Cl)cc1Br [I-13],4.29
11,O=C1ON=C(c2ccccc2Cl)C1=Cc1cc(-c2ccccc2)cs1 [I-14],4.36
12,O=C1ON=C(c2ccccc2Cl)C1=Cc1ccc(-c2ccccc2)s1 [I-15],4.42
13,CSc1ccsc1C=C1C(=O)ON=C1c1ccccc1Cl [I-16],3.59
14,O=C1ON=C(c2ccccc2Cl)C1=Cc1cc(Br)c(Br)s1 [I-17],4.64
15,Cc1ccsc1C=C1C(=O)ON=C1c1ccccc1Cl [I-18],3.38
16,Cc1ccc(C=C2C(=O)ON=C2c2ccccc2Cl)s1 [I-19],3.44
17,COCc1ccsc1C=C1C(=O)ON=C1c1ccccc1Cl [I-20],3.20
18,O=C1ON=C(c2ccccc2C(F)(F)F)C1=Cc1cccs1 [I-21],3.03
19,O=C1ON=C(c2ccccc2F)C1=Cc1cccs1 [I-22],2.95
20,Cc1ccccc1C1=NOC(=O)C1=Cc1cccs1 [I-23],2.98
21,O=C1ON=C(c2cccc([N+](=O)[O-])c2)C1=Cc1cccs1 [I-24],2.94
22,Cc1ccc(C=C2C(=O)ON=C2c2ccc(Cl)cc2)s1 [I-25],3.79

row,Compound,log P
1,Cc1ccsc1C=C1C(=O)ON=C1c1ccc(Cl)cc1 [I-26],3.70
2,Cc1ccsc1C=C1C(=O)ON=C1c1ccc(C(C)(C)C)cc1 [I-28],4.58
3,O=C1ON=C(c2ccc(Cl)cc2)C1=Cc1cc(Br)cs1 [I-31],4.19
4,O=C1ON=C(c2cc(Cl)cc(Cl)c2)C1=Cc1cccs1 [I-34],4.02
5,O=C1ON=C(c2cc(Cl)ccc2Cl)C1=Cc1cccs1 [I-35],3.64
6,O=C1ON=C(c2ccc(OC(F)(F)F)cc2)C1=Cc1ccc(Cl)s1 [I-36],4.42
7,Cc1ccc(C2=NOC(=O)C2=Cc2sccc2Br)cc1 [I-38],4.25
8,COc1ccc(C2=NOC(=O)C2=Cc2sccc2Br)cc1 [I-39],3.65
9,CC(C)(C)c1ccc(C2=NOC(=O)C2=Cc2ccc(Cl)s2)cc1 [I-40],5.08
10,O=C1ON=C(c2ccc(F)cc2)C1=Cc1ccc(Cl)s1 [I-41],3.72
11,Cc1ccc(C2=NOC(=O)C2=Cc2ccc(Cl)s2)cc1 [I-42],4.05
12,COc1ccc(C2=NOC(=O)C2=Cc2cc(Br)c(Br)s2)cc1 [I-44],4.45
13,O=C1ON=C(c2ccc(Cl)cc2)C1=Cc1cc(Br)c(Br)s1 [I-45],4.88
14,O=C1ON=C(c2ccc(Cl)cc2)C1=Cc1ccc(Cl)s1 [I-46],4.17
15,O=C1ON=C(c2ccc(F)cc2)C1=Cc1ccc(Br)s1 [I-47],3.78
16,Cc1ccc(C2=NOC(=O)C2=Cc2ccc(Br)s2)cc1 [I-48],4.12
17,COc1ccc(C2=NOC(=O)C2=Cc2ccc(Br)s2)cc1 [I-49],3.77
18,O=C1ON=C(c2ccc(Cl)cc2)C1=Cc1ccc(Br)s1 [I-50],4.21
19,O=C1ON=C(c2ccc(Cl)cc2)C1=Cc1ccc([N+](=O)[O-])s1 [I-51],3.70
20,COc1cccc(C2=NOC(=O)C2=Cc2cc(-c3ccccc3)cs2)c1 [I-52],4.27
21,CC(C)(C)c1ccc(C2=NOC(=O)C2=Cc2ccc([N+](=O)[O-])s2)cc1 [I-53],4.52
22,O=C1ON=C(c2ccc(F)cc2)C1=Cc1ccc([N+](=O)[O-])s1 [I-54],3.32

row,Compound,log P
1,O=C1ON=C(c2cccc(C(F)(F)F)c2)C1=Cc1cccs1 [I-57],3.61
2,O=C1ON=C(c2c(F)cccc2F)C1=Cc1cccs1 [I-59],2.97
3,O=C1ON=C(c2ccc(F)cc2)C1=Cc1sccc1Br [I-60],3.74
4,O=C1ON=C(c2ccc(Cl)cc2)C1=Cc1sccc1Br [I-61],4.23
5,COc1ccc(C2=NOC(=O)C2=Cc2cc(-c3ccccc3)cs2)cc1 [I-62],4.23
6,O=C1ON=C(c2ccc(F)cc2)C1=Cc1cc(Br)c(Br)s1 [I-63],4.45
7,Cc1ccc(C2=NOC(=O)C2=Cc2cc(Br)c(Br)s2)cc1 [I-64],4.84
8,O=C1ON=C(c2ccc(Cl)cc2)C1=Cc1cc(-c2ccccc2)cs1 [I-65],4.70
9,O=C1ON=C(c2ccc(-c3ccccc3)cc2)C1=Cc1cccs1 [I-66],4.16
10,O=C1ON=C(c2ccc(F)cc2)C1=Cc1cc(-c2ccccc2)cs1 [I-67],4.27
11,COc1cccc(C2=NOC(=O)C2=Cc2ccc(Br)s2)c1 [I-68],3.79
12,Cc1ccc(C2=NOC(=O)C2=Cc2cc(-c3ccccc3)cs2)cc1 [I-69],5.30
13,O=C1ON=C(c2c(F)cccc2F)C1=Cc1cc(-c2ccccc2)cs1 [I-70],4.16
14,O=C1ON=C(c2ccc(C(F)(F)F)cc2)C1=Cc1ccc(Cl)s1 [I-71],4.37
15,O=C1ON=C(c2c(F)cccc2F)C1=Cc1ccc(Br)s1 [I-72],3.73
16,Cc1ccsc1C=C1C(=O)ON=C1c1c(F)cccc1F [I-73],3.17
17,O=C1ON=C(c2ccc(-c3ccccc3)cc2)C1=Cc1ccc(Br)s1 [I-75],4.88
18,O=C1ON=C(c2c(F)cccc2F)C1=Cc1ccc([N+](=O)[O-])s1 [I-76],3.25
19,O=C1ON=C(c2c(F)cccc2F)C1=Cc1cc(Br)cs1 [I-77],3.69
20,Cc1ccc(C=C2C(=O)ON=C2c2c(F)cccc2F)s1 [I-78],3.25
21,Cc1cccc(C2=NOC(=O)C2=Cc2cccs2)c1 [I-80],3.36

# Same assay, conditions: reversed-phase C18 HPLC column; preparation examples; HPLC, acidic range pH 2.7, formic acid; read-out: log P (HCOOH)
row,Compound,chromatographic logP
1,"O=C1CC(c2ccc(Cl)cc2Cl)=NO1 [3-(2,4-dichlorophenyl)isoxazol-5(4H)-one]",2.44
2,COc1cccc(C2=NOC(=O)C2)c1 [3-(3-methoxyphenyl)isoxazol-5(4H)-one],4.03
3,CC(C)(C)c1ccc(C2=NOC(=O)C2)cc1 [3-(4-tert-butylphenyl)isoxazol-5(4H)-one],3.1
4,"O=C1ON=C(c2ccc(Cl)cc2Cl)/C1=C/c1cccs1 [I-4, 3-(2,4-dichlorophenyl)-4-(2-thienylmethylene)isoxazol-5(4H)-one]",3.72
5,"Cc1ccc(/C=C2\C(=O)ON=C2c2ccc(C(C)(C)C)cc2)s1 [I-27, 3-(4-tert-butylphenyl)-4-(2-(5-methylthienyl)methylene)isoxazol-5(4H)-one]",4.7
6,"COc1cccc(C2=NOC(=O)/C2=C\c2ccc(Cl)s2)c1 [I-37, 3-(3-methoxyphenyl)-4-(2-(5-chlorothienyl)methylene)isoxazol-5(4H)-one]",3.74
